Measured values from US11034710B2, “CDK9 inhibitors and polymorphs thereof for use as agents for treatment of cancer” (SUMITOMO DAINIPPON PHARMA ONCOLOGY, INC., priority 2018, dated 2021).

What was measured:
[1] = Four-week stability of Form B obtained using various Step 4.1 reaction conditions (40° C./75% RH, HPLC); type: physicochemical; settings: 40° C. ± 2° C., 75 ± 5% RH, sealed vial
Excerpt: The results of the stability study appear in Table 21.

[2] = Dynamic vapor sorption (DVS) test of amorphous Form A; type: physicochemical; settings: 80% relative humidity
[3] = Stability study of amorphous Form A (decomposition to compound A-2); type: physicochemical
[4] = Phase I study: plasma pharmacokinetics of compound of structure (I) and alvocidib; type: in vivo, human
Excerpt: Patients with advanced metastatic or progressive solid tumors who were refractory to, or intolerant of, established therapy known to provide clinical benefit for their condition were enrolled. Cohorts of 3-6 patients each received escalating doses of compound of structure (I) using a modified Fibonacci dose escalation approach. Once the optimal dose has been established, additional patients may be enrolled to confirm safety and to explore efficacy.
This is an ongoing Phase 1, open-label, dose-escalation, safety, PK and PD study. The proposed starting dose and schedule for oral compound of structure (I) was a 1-mg flat dose once daily (QD) for 14 days followed by a 7-day drug-free recovery period (each cycle=21 days). In the absence of dose-limiting toxicities (DLTs) in the first cohort of at least 3 patients, the dose was increased using a modified Fibonacci dose escalation scheme, and BID dosing commenced according to the dose escalation schedule described in Table 28. The first patient in cohort 6 has been enrolled at 8 mg compound of structure (I) BID. The baseline demographics of the first 14 patients enrolled in the study are described in Table 26.
Plasma PK parameters of compound of structure (I) and alvocidib were evaluated in Cohorts 1-5 at specific timepoints during the study. Blood was collected from patients in Cohorts 1-5 according to the pharmacokinetic sampling schedule described in Table 29.
PK parameters were estimated using standard noncompartmental methods. Actual sample collection times were used rather than scheduled collection times. Plasma concentrations below the limit of quantification were treated as 0. Imbedded missing plasma concentrations (e.g., missing values between two observed values) were estimated using linear […]. This is consistent with using the trapezoidal rule to calculate AUC. Other missing plasma concentrations were excluded from calculations to estimate PK parameters.

[5] = tested on: patients with advanced solid tumors; assay: Phase I study: safety, dose-limiting toxicities and treatment-emergent adverse events; type: in vivo, human
Excerpt: Patients with advanced metastatic or progressive solid tumors who were refractory to, or intolerant of, established therapy known to provide clinical benefit for their condition were enrolled. Cohorts of 3-6 patients each received escalating doses of compound of structure (I) using a modified Fibonacci dose escalation approach. Once the optimal dose has been established, additional patients may be enrolled to confirm safety and to explore efficacy. This is an ongoing Phase 1, open-label, dose-escalation, safety, PK and PD study. The proposed starting dose and schedule for oral compound of structure (I) was a 1-mg flat dose once daily (QD) for 14 days followed by a 7-day drug-free recovery period (each cycle=21 days). In the absence of dose-limiting toxicities (DLTs) in the first cohort of at least 3 patients, the dose was increased using a modified Fibonacci dose escalation scheme, and BID dosing commenced according to the dose escalation schedule described in Table 28. The first patient in cohort 6 has been enrolled at 8 mg compound of structure (I) BID. The baseline demographics of the first 14 patients enrolled in the study are described in Table 26. […] DLT was defined as any one of the following events observed in cycle 1, regardless of investigator attribution, unless there was a clear alternative explanation: • 1. Grade 3 or greater febrile neutropenia • 2. Grade 4 neutropenia for ≥7 consecutive days • 3. Grade 4 thrombocytopenia or Grade 3 thrombocytopenia with clinically significant bleeding or that requires a platelet transfusion • 4. Grade 3 or 4 nonhematologic AEs will be considered dose limiting, regardless of duration aside from the specific parameters described herein • 5. Grade 4 nausea, vomiting, or diarrhea, regardless of duration • 6. […] Any Grade ≥3 elevations in creatinine • 10. Any Grade 5 toxicity

[6] = patients (% of N = 14), oral dosing, advanced solid tumors

Q: What does the source list for `CN1CCC(c2c(OP(=O)(O)O)cc(O)c3c(=O)cc(-c4ccccc4Cl)oc23)C(O)C1.Cl` (stereo not shown) [Form A-11]?
A: A-2 ([1]; 7 days ± 1 day): 6.6%; HPLC Purity of A-5 ([1]; 7 days ± 1 day): 91.3%; A-2 ([1]; 14 days ± 1 day): 13.7%; HPLC Purity of A-5 ([1]; 14 days ± 1 day): 84.12%; A-2 ([1]; 21 days ± 1 day): 19.0%; HPLC Purity of A-5 ([1]; 21 days ± 1 day): 78.5%; A-2 ([1]; 28 days ± 1 day): 22.2%; HPLC Purity of A-5 ([1]; 28 days ± 1 day): 75.0%; A-2 ([1]; Initial): 1.02%; HPLC Purity of A-5 ([1]; Initial): 97.0%

Q: What does the source list for `CN1CC[C@H](c2c(OP(=O)(O)O)cc(O)c3c(=O)cc(-c4ccccc4Cl)oc23)[C@H](O)C1` [Form A]?
A: weight of water taken in (DVS), hygroscopicity [2]: 12.5%; decomposition ([3]; 40° C. and 75% relative humidity for one week): accelerated decomposition; degradation to compound A-2 ([3]; after 10 days at room temperature): 6.85%; degradant trends ([3]; stored at −20° C.): no degradant trends; A-2 ([1]; 7 days ± 1 day): 0.88%; HPLC Purity of A-5 ([1]; 7 days ± 1 day): 98.6%; A-2 ([1]; 14 days ± 1 day): 2.2%; HPLC Purity of A-5 ([1]; 14 days ± 1 day): 97.5%; A-2 ([1]; Initial): 0.44%; HPLC Purity of A-5 ([1]; Initial): 99.2%

Q: What does the source list for `CN1CC[C@H](c2c(O)cc(O)c3c(=O)cc(-c4ccccc4Cl)oc23)[C@H](O)C1` [alvocidib, 2-(2-chlorophenyl)-5,7-dihydroxy-8-[(3S,4R)-3-hydroxy-1-methylpiperidin-4-yl]chromen-4-one]?
A: Tmax ([4]; Cohort 5, 6 mg BID oral Formulation No. 401-01, Cycle 1 Day 1, Mean of subjects 501-503): 60 min; Tmax ([4]; Cohort 5, 6 mg BID oral Formulation No. 401-01, Cycle 1 Day 1, Subject 501): 30 min; Tmax ([4]; Cohort 5, 6 mg BID oral Formulation No. 401-01, Cycle 1 Day 1, Subject 502): 120 min; Tmax ([4]; Cohort 5, 6 mg BID oral Formulation No. 401-01, Cycle 1 Day 1, Subject 503): 30 min; Tmax ([4]; Cohort 5, 6 mg BID oral Formulation No. 401-01, Cycle 1 Day 14, Mean of subjects 501-503): 60 min; Tmax ([4]; Cohort 5, 6 mg BID oral Formulation No. 401-01, Cycle 1 Day 14, Subject 501): 30 min; Tmax ([4]; Cohort 5, 6 mg BID oral Formulation No. 401-01, Cycle 1 Day 14, Subject 502): 120 min; Tmax ([4]; Cohort 5, 6 mg BID oral Formulation No. 401-01, Cycle 1 Day 14, Subject 503): 30 min

Q: For `CN1CC[C@H](c2c(OP(=O)(O)O)cc(O)c3c(=O)cc(-c4ccccc4Cl)oc23)[C@H](O)C1` [compound of structure (I), 2-(2-chlorophenyl)-5-hydroxy-8-((3S,4R)-3-hydroxy-1-methylpiperidin-4-yl)-4-oxo-4H-chromen-7-yl dihydrogen phosphate], which “toxicity observed to date” value ([5]; oral, Cohorts to date, patients with advanced solid tumors) is on record?
A: no unexplained toxicity, and no evidence of dose-limiting diarrhea or neutropenia

Q: And the “Treatment-emergent adverse events grade ≥ 3: Anemia, Grade 3” value [5, 6]?
A: 1 (7%)

Q: What about the “Treatment-emergent adverse events grade ≥ 3: Chest Pain, Grade 3” value [5, 6] of the same compound?
A: 1 (7%)

Q: What about the “Treatment-emergent adverse events grade ≥ 3: Haematuria, Grade 3” value [5, 6] of the same compound?
A: 1 (7%)

Q: What about the “Treatment-emergent adverse events grade ≥ 3: Hypotension, Grade 3” value [5, 6] of the same compound?
A: 1 (7%)

Q: And the “Treatment-emergent adverse events grade ≥ 3: Hypoxia, Grade 3” value [5, 6]?
A: 1 (7%)

Q: And the “Treatment-emergent adverse events grade ≥ 3: Malignant Pleural Effusion, Grade 3” value [5, 6]?
A: 1 (7%)

Q: And the “Treatment-emergent adverse events grade ≥ 3: Pain, Grade 3” value [5, 6]?
A: 1 (7%)

Q: What about the “Treatment-emergent adverse events grade ≥ 3: Swelling, Grade 3” value [5, 6] of the same compound?
A: 1 (7%)
